Key:
[1] = system: synaptosomes; settings: two cycles of cisplatin
[2] = system: C57Bl/6 mice; assay: Puzzle box test; assay type: in vivo; settings: two cycles of cisplatin; cardboard plug, trials 8–11
[3] = system: C57Bl/6 mice; assay: Y maze spontaneous alternation test; assay type: in vivo; settings: two cycles of cisplatin
[4] = system: intraepidermal nerve fibers; assay: IENF density in hind paw skin; assay type: in vivo, mice; settings: two cycles of cisplatin 2.3 mg/kg i.p.
[5] = system: NCI-H69 human lung cancer xenograft; assay: NCI-H69 lung cancer xenograft, tumor volume; assay type: in vivo, BALB/c nude mice; settings: cisplatin 4 mg/kg i.p. every 4 days, 6 doses
[6] = system: p-c-Jun in the DRGs; assay: p-c-Jun in DRG after one treatment cycle; assay type: in vivo, mice; settings: one cycle of cisplatin 2.3 mg/kg i.p. for 5 days
[7] = system: DRG transcriptome; assay: RNA sequencing of DRG; assay type: in vivo, mice; settings: cisplatin alone vs controls, one cycle

N.N.[Cl][Pt][Cl] [cisplatin]
synaptosomal MRC and SRC [1]: reduced maximal respiratory capacity and spare respiratory capacity | time to enter the goal box with difficult obstacle [2]: required significantly more time to enter the goal box | Y maze alternation rate [3]: significant decrease in the alternation rate | IENF density in the hind paws [4]: reduced IENF density | tumor growth [5]: significantly reduced tumor growth | p-c-Jun in DRG [6]: significantly, but modestly, induced p-c-Jun | number of genes with changed expression [7]: 1337
